{
  "source": "paper PMC9231138",
  "about": "“Dihydrotanshinone I Enhances Cell Adhesion and Inhibits Cell Migration in Osteosarcoma U−2 OS Cells through CD44 and Chemokine Signaling” (Molecules, 2022)",
  "key": {"U−2 OS cells [1]": {"test_system": "U−2 OS cells", "assay": "MTT cell proliferation assay, U−2 OS cells", "type": "cell-based", "settings": "Homo sapiens, U2OS", "experimental": "The effects of tanshinones (DS−1 to DS−5) on the proliferation of U−2 OS cells, HeLa cells, and NRK−49F cells were measured by the classical MTT method with minor modifications as follows. Cells were seeded at 5000 per well in 96-well plates, with each group being repeated in 5 wells, and were incubated for 12 h. DS−1 to DS−5 were added at gradient concentrations, then incubated for 24 and 48 h, respectively. Then, 20 μL MTT solution (solved in PBS, 5 mg/mL) was added to every well, and the cells were further incubated at 37 °C for 4 h until a purple precipitate was visible. The plate was centrifuged at 1000 rpm for 1 min; the supernatant was suctioned, and 150 μL of DMSO was added per well; the plate was shaken on a shaker protected from light for 15 min. We placed the plate in an enzyme marker and measured the absorbance values at a 490 nm wavelength."}, "U−2 OS cells [2]": {"test_system": "U−2 OS cells", "assay": "Cell cycle distribution by flow cytometry", "type": "cell-based, human", "settings": "24 h, mean ± SD", "experimental": "The cell cycle is a key regulator of cell survival and the repair signal network. It has direct effects on multiple cell processes, including cell proliferation, DNA repair, apoptosis, and cell migration. Thus, it was further analyzed by flow cytometry. As shown in Table 2 and Figure 5A–E, after treatment with DS−1 at doses of 0, 2.5, 5.0, and 7.5 µM for 24 h, the distribution of the cell cycle was measured and the proportion of the G0/G1 phase was 54.70 ± 2.21%, 61.07 ± 2.04%, 65.20 ± 4.35%, and 65.65 ± 1.83%, respectively. In addition, the proportion of U−2 OS cells at the G0/G1 phase increased with the increase in the DS−1 concentration (Figure 5A–E), implying possible cell cycle arrest at the G0/G1 phase.\nFigure 5 DS−1 regulated the cell cycle of U−2 OS cells. (A–D) Cell cycle of U−2 OS cells was retained in the G0/G1 phase. U−2 OS cells were treated with DS−1 at 0, 2.5, 5.0, and 7.5 µM for 24 h, and the cell cycle ratio was measured by flow cytometry; the cell cycle distribution is shown in Table 2. (E) Histogram of cell cycle distribution after U−2 OS cells were treated with DS−1. (F) Heatmap of the expression of genes relating to cell cycle in the transcriptome results. (G–K) In U−2 OS cells treated with DS−1 at concentrations of 0, 2.5, 5.0, and 7.5 μM, RNA was extracted and analyzed by RT-PCR, and the changes in CDK2, cyclin D1, cyclin E1, and p21 mRNA are presented in the histogram. (L) Cyclin D1 and cyclin E1 protein relative expression was analyzed by Western blot. Values are the average of three independent experiments, * p < 0.05, ** p < 0.01, *** p < 0.005. TEXT PRINTED IN THE PICTURE: (A) DS-1: G1(54.88%) (0 μM); S(19.57%) (0 μM); G2(23.84%) (0 μM) | (B) DS-1: G1(60.37%) (2.5 μM); S(18.70%) (2.5 μM); G2(19.44%) (2.5 μM) | (C) DS-1: G1(65.10%) (5.0 μM); S(16.87%) (5.0 μM); G2(16.41%) (5.0 μM) | (D) DS-1: G0G1(65.65%) (7.5 μM); S(14.20%) (7.5 μM); G2M(19.60%) (7.5 μM) DOUBTS OF THE COPYIST ABOUT THIS PICTURE: The label DS-1 is printed only in panel L (\"DS-1(μM)\"); panels A-D print only the concentration, no substance label / Panel A (0 μM) is the untreated state; its values are given with the 0 μM heading as condition / All gate percentages in panels A-D are printed very small and blurred; 3, 5, 6, 8 and 9 cannot be told apart with certainty / A, G1: 54.88% or 54.89% / 54.68% / A, S: 19.57% or 19.67% / A, G2: 23.84% or 23.64% / B, G1: 60.37% or 60.31% / 80.37% / B, S: 18.70% or 16.70% / B, G2: 19.44% or 18.44% / C, G1: 65.10% or 65.16% / 63.10% / C, S: 16.87% or 16.67% / 18.87% / C, G2: 16.41% or 18.41% / D, G0G1: 65.65% or 65.85% / 66.65% / D, S: 14.20% or 14.26% / D, G2M: 19.60% or 19.80% / 19.66%"}},
  "note": "Where two headings read alike, the source gives them in different places.",
  "data": [
    {"smiles": "Cc1cccc2c3c(ccc12)C1=C(C(=O)C3=O)[C@@H](C)CO1", "note": "[DS−1, 15,16-Dihydrotanshinone I]", "values": [
      {"measurement": "IC50", "setting": "U−2 OS cells [1]; 24 h, read-out: IC50 U−2 OS cells (24 h)", "value": "3830 ± 490", "unit": "nM"},
      {"measurement": "IC50", "setting": "U−2 OS cells [1]; 48 h, read-out: IC50 U−2 OS cells (48 h)", "value": "1990 ± 370", "unit": "nM"},
      {"measurement": "proportion of cells in G0/G1 phase", "setting": "U−2 OS cells [2]; DS−1 2.5 µM", "value": "61.07 ± 2.04", "unit": "%"},
      {"measurement": "proportion of cells in G2/M phase", "setting": "U−2 OS cells [2]; DS−1 2.5 µM", "value": "18.65 ± 3.50"},
      {"measurement": "proportion of cells in S phase", "setting": "U−2 OS cells [2]; DS−1 2.5 µM", "value": "20.10 ± 2.07"},
      {"measurement": "proportion of cells in G0/G1 phase", "setting": "U−2 OS cells [2]; DS−1 5.0 µM", "value": "65.20 ± 4.35", "unit": "%"},
      {"measurement": "proportion of cells in G2/M phase", "setting": "U−2 OS cells [2]; DS−1 5.0 µM", "value": "14.92 ± 4.67"},
      {"measurement": "proportion of cells in S phase", "setting": "U−2 OS cells [2]; DS−1 5.0 µM", "value": "19.55 ± 3.08"},
      {"measurement": "proportion of cells in G0/G1 phase", "setting": "U−2 OS cells [2]; DS−1 7.5 µM", "value": "65.65 ± 1.83", "unit": "%"},
      {"measurement": "proportion of cells in G2/M phase", "setting": "U−2 OS cells [2]; DS−1 7.5 µM", "value": "19.60 ± 1.40"},
      {"measurement": "proportion of cells in S phase", "setting": "U−2 OS cells [2]; DS−1 7.5 µM", "value": "14.20 ± 0.40"}
    ]}
  ]
}
